Our source for the AC50 values is ChEMBL document CHEMBL5291721, “A preclinical secondary pharmacology resource illuminates target-adverse drug reaction associations of marketed drugs” (Nat Commun, 2023).

For assay [1], the target named is T1, Alpha-1A adrenergic receptor (Homo sapiens, UniProt P35348).
T1 sequence (P35348 whole entry): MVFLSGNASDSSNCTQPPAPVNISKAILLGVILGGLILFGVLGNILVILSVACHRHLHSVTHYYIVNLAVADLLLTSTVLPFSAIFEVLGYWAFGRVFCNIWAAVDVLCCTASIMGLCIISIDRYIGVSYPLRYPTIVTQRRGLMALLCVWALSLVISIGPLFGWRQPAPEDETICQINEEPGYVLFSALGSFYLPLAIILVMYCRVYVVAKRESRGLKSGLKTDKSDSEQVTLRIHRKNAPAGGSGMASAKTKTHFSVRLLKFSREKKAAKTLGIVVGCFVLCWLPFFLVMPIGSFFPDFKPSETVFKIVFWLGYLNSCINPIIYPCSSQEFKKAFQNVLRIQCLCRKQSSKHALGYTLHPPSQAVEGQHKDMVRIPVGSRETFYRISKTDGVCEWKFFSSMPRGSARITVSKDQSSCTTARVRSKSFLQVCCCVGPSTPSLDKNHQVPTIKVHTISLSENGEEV

The next assay has as its target Melanocortin receptor 4 (Homo sapiens, UniProt P32245).
Another assay has as its target Mu-type opioid receptor (Homo sapiens, UniProt P35372).
Assay [2] has as its target T1, Alpha-1A adrenergic receptor. The class given is functional, cell-based.
Further: assay procedure not described here.

Sequence of Melanocortin receptor 4 (P32245 whole entry): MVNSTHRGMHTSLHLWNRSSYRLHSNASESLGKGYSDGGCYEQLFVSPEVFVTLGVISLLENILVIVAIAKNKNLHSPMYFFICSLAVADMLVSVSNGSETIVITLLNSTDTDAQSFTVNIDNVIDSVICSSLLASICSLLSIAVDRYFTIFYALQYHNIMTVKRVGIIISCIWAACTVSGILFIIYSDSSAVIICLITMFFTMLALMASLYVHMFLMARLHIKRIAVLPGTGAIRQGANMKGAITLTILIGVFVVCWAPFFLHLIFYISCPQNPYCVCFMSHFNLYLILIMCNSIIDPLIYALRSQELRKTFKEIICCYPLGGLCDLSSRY
Sequence of Mu-type opioid receptor (P35372 whole entry): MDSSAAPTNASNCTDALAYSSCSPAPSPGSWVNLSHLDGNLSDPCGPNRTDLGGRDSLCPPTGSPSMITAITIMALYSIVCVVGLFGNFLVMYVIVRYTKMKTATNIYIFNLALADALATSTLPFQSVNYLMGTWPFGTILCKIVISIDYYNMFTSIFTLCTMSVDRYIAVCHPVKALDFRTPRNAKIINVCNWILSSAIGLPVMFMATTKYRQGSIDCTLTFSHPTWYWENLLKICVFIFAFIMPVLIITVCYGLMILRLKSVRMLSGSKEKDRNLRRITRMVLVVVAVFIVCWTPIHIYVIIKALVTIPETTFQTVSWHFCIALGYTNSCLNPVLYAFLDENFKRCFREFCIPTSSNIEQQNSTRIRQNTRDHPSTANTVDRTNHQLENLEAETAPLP

As to `C[C@H](CSC(=O)c1ccccc1)C(=O)N1C[C@@H](Sc2ccccc2)C[C@H]1C(=O)O` [ZOFENOPRIL], the AC50 in assay [1] is over 10 µM; on Melanocortin receptor 4 it was over 10 µM; on Mu-type opioid receptor, over 30 µM.

`CC(C)C(=O)c1c(C(C)C)nn2ccccc12` [IBUDILAST] registered an AC50 in assay [2] of over 30 µM.

On to `C[C@]1(O)CC[C@H]2[C@@H]3CCC4=CC(=O)CC[C@]4(C)[C@@]3(F)[C@@H](O)C[C@@]21C` [FLUOXYMESTERONE], for which the AC50 in assay [1] is over 30 µM; at Melanocortin receptor 4, over 10 µM; at Mu-type opioid receptor it was over 30 µM.

In turn, `Nc1nc(N)nc(-c2cc(Cl)ccc2Cl)n1` [IRSOGLADINE] had an AC50 in assay [2] of over 30 µM.

In assay [2], `CC(=O)O[C@H]1C[C@@H]2CC[C@@H]3[C@H](CC[C@@]4(C)[C@H]3C[C@H]([N+]3(C)CCCCC3)[C@@H]4OC(C)=O)[C@@]2(C)C[C@@H]1N1CCCCC1` [VECURONIUM] returned an AC50 of over 30 µM.

Take `CO[C@@H]1[C@@H](O[C@@H]2O[C@H](C)[C@@H](O[C@H]3C[C@@](C)(O)[C@@H](OC(=O)CC(C)C)[C@H](C)O3)[C@H](N(C)C)[C@H]2O)[C@@H](CC=O)C[C@@H](C)[C@@H](O)/C=C/C=C/C[C@@H](C)OC(=O)C[C@H]1OC(C)=O` [JOSAMYCIN]: the concentration at half-maximal activity (AC50) on Melanocortin receptor 4 is over 10 µM; at Mu-type opioid receptor, over 30 µM.

With `CCCC(=O)O[C@]1(C(=O)CO)CC[C@H]2[C@@H]3CCC4=CC(=O)CC[C@]4(C)[C@H]3[C@@H](O)C[C@@]21C` [HYDROCORTISONE BUTYRATE], the results for the concentration at half-maximal activity (AC50) (in assay [1]; at Melanocortin receptor 4; at Mu-type opioid receptor) were over 10 µM, over 10 µM and over 30 µM, respectively.

For the compound `COC(=O)C1=C(C)NC(C)=C(C(=O)OC(C)(C)CN(C)CCC(c2ccccc2)c2ccccc2)C1c1cccc([N+](=O)[O-])c1` (stereo not given) [LERCANIDIPINE], the AC50 in assay [1] was 5.7 µM; on Melanocortin receptor 4 it was over 30 µM.

Turning to `O=C(O)C1=C(CSc2nnnn2CS(=O)(=O)O)CS[C@@H]2[C@H](NC(=O)[C@H](O)c3ccccc3)C(=O)N12` [CEFONICID], the AC50 (in assay [1]; on Melanocortin receptor 4; in assay [2]) was over 30 µM throughout.

For `COc1ccc(-c2ccc3cc(C(=O)O)ccc3c2)cc1C12CC3CC(CC(C3)C1)C2`, the AC50 in assay [2] is over 30 µM.

With `O=C(O)CCCCCCNC1c2ccccc2CCc2ccccc21` [AMINEPTINE], the AC50 in assay [2] is over 30 µM.

Compound `CCOC(=O)OC(C)OC1=C(C(=O)Nc2ccccn2)N(C)S(=O)(=O)c2ccccc21` (stereo not given) [AMPIROXICAM] yielded a half-maximal activity concentration (AC50) in assay [2] of over 30 µM.

For `CCOC(=O)[C@H](CCc1ccccc1)N[C@@H](C)C(=O)N1C(=O)N(C)C[C@H]1C(=O)O`, in assay [2], the AC50 was over 30 µM.

Take `CO/N=C(\C(=O)N[C@@H]1C(=O)N2C(C(=O)O)=C(CSc3nnnn3C)CS[C@H]12)c1csc(N)n1` [CEFMENOXIME]: the AC50 in assay [2] is over 30 µM.

`CC(CC(c1ccccc1)c1ccccc1)NC(C)(C)C` (stereo not given) [TERODILINE]: the activity in assay [2] was half-maximal at 12 µM (AC50).

`C=CCN1CCCC1CNC(=O)c1cc(S(N)(=O)=O)cc(OC)c1OC` (stereo not given) [VERALIPRIDE] came in with an AC50 in assay [2] of over 30 µM.

For the compound `Nc1nc(/C(=C/CC(=O)O)C(=O)N[C@@H]2C(=O)N3C(C(=O)O)=CCS[C@H]23)cs1` [CEFTIBUTEN], the AC50 (at Melanocortin receptor 4; in assay [2]) was over 30 µM each time.

Regarding `COC(=O)[C@H]1[C@H]2C[C@@H]3c4[nH]c5cc(OC)ccc5c4CCN3C[C@H]2C[C@@H](OC(=O)/C=C/c2cc(OC)c(OC)c(OC)c2)[C@@H]1OC` [RESCINNAMINE], the AC50 on Melanocortin receptor 4 and at Mu-type opioid receptor was over 10 µM each time.

`CC(=O)OCC(=O)[C@@]12N=C(C)O[C@@H]1C[C@H]1[C@@H]3CCC4=CC(=O)C=C[C@]4(C)[C@H]3[C@@H](O)C[C@@]12C` [DEFLAZACORT] came in with an AC50 in assay [2] of over 30 µM.

On to `NCC(=O)CCC(=O)O` [AMINOLEVULINIC ACID], for which the AC50 (at Mu-type opioid receptor; in assay [2]) was over 30 µM throughout.

Turning to `COC(=O)C1=C(C)NC(C)=C(C(=O)OC2CCCN(Cc3ccccc3)C2)C1c1cccc([N+](=O)[O-])c1` (stereo not given) [BENIDIPINE], the activity in assay [1] was half-maximal at 3 µM (AC50). This counts as single-digit micromolar.

`CCOC(=O)[N-]c1cn(N2CCOCC2)n[o+]1` [MOLSIDOMINE] gave a concentration at half-maximal activity (AC50) in assay [2] of over 30 µM.
